According to ChEMBL document CHEMBL3885881, “DrugMatrix”:

Organism: Rattus norvegicus
Experiment: DrugMatrix - Regimen: Daily Repeat
Type: toxicity, organism-based, Sprague-Dawley
Design: regimen Daily Repeat, gender Male, age 6-8 weeks
Conditions: in vivo, po, route oral GAVAGE, vehicle 100 % WATER; for ABSOLUTE BASOPHIL / ABSOLUTE EOSINOPHIL / ABSOLUTE LYMPHOCYTE / ABSOLUTE MONOCYTE / ABSOLUTE SEGMENTED NEUTROPHIL / BASOPHIL / EOSINOPHIL / ERYTHROCYTE COUNT / HEMATOCRIT / HEMOGLOBIN / LEUKOCYTE COUNT / LYMPHOCYTE / MEAN CORPUSCULAR HEMOGLOBIN / MEAN CORPUSCULAR HEMOGLOBIN CONCENTRATION / MEAN CORPUSCULAR VOLUME / MONOCYTE / NEUTROPHIL / NUCLEATED RED BLOOD CELLS / PLATELET COUNT: tissue Blood; for ALANINE AMINOTRANSFERASE / ALBUMIN / ALKALINE PHOSPHATASE / ASPARTATE AMINOTRANSFERASE / BLOOD UREA NITROGEN / CARBON DIOXIDE / CHLORIDE / CHOLESTEROL / CREATINE PHOSPHOKINASE / CREATININE / GLUCOSE / LACTATE DEHYDROGENASE / LIPASE / PHOSPHORUS / POTASSIUM / SODIUM / TOTAL BILIRUBIN / TOTAL PROTEIN / URIC ACID: tissue Plasma
[1] = 20 mg/kg, 72 h, dose level Low, time 3 day
[2] = 20 mg/kg, 120 h, dose level Low, time 5 day
[3] = 2000 mg/kg, 72 h, dose level High, time 3 day
[4] = 2000 mg/kg, 120 h, dose level High, time 5 day

In the case of `C[C@H]1O[C@H](O[C@H]2[C@H](O)[C@@H](O)[C@@H](O[C@H]3[C@H](O)[C@@H](O)C(O)O[C@@H]3CO)O[C@@H]2CO)[C@H](O)[C@@H](O)[C@@H]1N[C@H]1C=C(CO)[C@@H](O)[C@H](O)[C@H]1O` (some centres not stated) [ACARBOSE], the “ABSOLUTE BASOPHIL” value [1] is reported as 0 CELLS/uL, the “ABSOLUTE EOSINOPHIL” value [1] is reported as 64.67 CELLS/uL and the “ABSOLUTE LYMPHOCYTE” value [1] is reported as 10120.67 CELLS/uL. The “ABSOLUTE MONOCYTE” value [1] was 0 CELLS/uL, the “ABSOLUTE SEGMENTED NEUTROPHIL” value [1] was 948 CELLS/uL and the BASOPHIL [1] was 0%. For the same compound, the EOSINOPHIL [1] was 0.67%, the “ERYTHROCYTE COUNT” value [1] was 5.03 x10E6/uL and the HEMATOCRIT [1] was 31.8%. For the same compound, the HEMOGLOBIN [1] was 12.87 G/DL, the “LEUKOCYTE COUNT” value [1] was 11.13 x10E3/uL and the LYMPHOCYTE [1] was 91.33%. The “MEAN CORPUSCULAR HEMOGLOBIN” value [1] was 25.6 pg, the “MEAN CORPUSCULAR HEMOGLOBIN CONCENTRATION” value [1] was 40.47 G/DL and the “MEAN CORPUSCULAR VOLUME” value [1] was 63.17 fL. The MONOCYTE [1] was 0%, the NEUTROPHIL [1] was 8% and the “NUCLEATED RED BLOOD CELLS” value [1] was 0 /100WBC. The “PLATELET COUNT” value [1] was 1088.33 x10E3/uL, the “ALANINE AMINOTRANSFERASE” value [1] was 51.33 u/L and the ALBUMIN [1] was 4.1 G/DL. The “ALKALINE PHOSPHATASE” value [1] was 389.33 u/L, the “ASPARTATE AMINOTRANSFERASE” value [1] was 87.67 u/L and the “BLOOD UREA NITROGEN” value [1] was 16.67 mg/dL. The “CARBON DIOXIDE” value [1] was 24.33 mmol/L, the CHLORIDE [1] was 102.33 MEQ/L and the CHOLESTEROL [1] was 70.33 mg/dL. For the same compound, the “CREATINE PHOSPHOKINASE” value [1] was 377 u/L, the CREATININE [1] was 0.18 mg/dL and the GLUCOSE [1] was 148.33 mg/dL. The “LACTATE DEHYDROGENASE” value [1] was 368.33 u/L, the LIPASE [1] was 8.33 u/L and the PHOSPHORUS [1] was 14.03 mg/dL. The POTASSIUM [1] was 6.96 MEQ/L, the SODIUM [1] was 145.97 MEQ/L and the “TOTAL BILIRUBIN” value [1] was 0.23 mg/dL. The “TOTAL PROTEIN” value [1] was 5.73 G/DL, the “URIC ACID” value [1] was 1.43 mg/dL and the “ABSOLUTE BASOPHIL” value [2] was 0 CELLS/uL. The “ABSOLUTE EOSINOPHIL” value [2] was 33.67 CELLS/uL, the “ABSOLUTE LYMPHOCYTE” value [2] was 11112 CELLS/uL and the “ABSOLUTE MONOCYTE” value [2] was 101.33 CELLS/uL. For the same compound, the “ABSOLUTE SEGMENTED NEUTROPHIL” value [2] was 919.67 CELLS/uL, the BASOPHIL [2] was 0% and the EOSINOPHIL [2] was 0.33%. The “ERYTHROCYTE COUNT” value [2] was 5.14 x10E6/uL, the HEMATOCRIT [2] was 33.7% and the HEMOGLOBIN [2] was 13.33 G/DL. The “LEUKOCYTE COUNT” value [2] was 12.17 x10E3/uL, the LYMPHOCYTE [2] was 91% and the “MEAN CORPUSCULAR HEMOGLOBIN” value [2] was 26 pg. For the same compound, the “MEAN CORPUSCULAR HEMOGLOBIN CONCENTRATION” value [2] was 39.57 G/DL, the “MEAN CORPUSCULAR VOLUME” value [2] was 65.63 fL and the MONOCYTE [2] was 1%. The NEUTROPHIL [2] was 7.67%, the “NUCLEATED RED BLOOD CELLS” value [2] was 1 /100WBC and the “PLATELET COUNT” value [2] was 1353.33 x10E3/uL. The “ALANINE AMINOTRANSFERASE” value [2] was 52.33 u/L, the ALBUMIN [2] was 4.4 G/DL and the “ALKALINE PHOSPHATASE” value [2] was 361.67 u/L. For the same compound, the “ASPARTATE AMINOTRANSFERASE” value [2] was 74.67 u/L, the “BLOOD UREA NITROGEN” value [2] was 17.33 mg/dL and the “CARBON DIOXIDE” value [2] was 27.33 mmol/L. For the same compound, the CHLORIDE [2] was 101.33 MEQ/L, the CHOLESTEROL [2] was 74 mg/dL and the “CREATINE PHOSPHOKINASE” value [2] was 186 u/L. For the same compound, the CREATININE [2] was 0.17 mg/dL, the GLUCOSE [2] was 180.33 mg/dL and the “LACTATE DEHYDROGENASE” value [2] was 91.33 u/L. For the same compound, the LIPASE [2] was 8.67 u/L, the PHOSPHORUS [2] was 13.03 mg/dL and the POTASSIUM [2] was 6.7 MEQ/L. The SODIUM [2] was 145.5 MEQ/L, the “TOTAL BILIRUBIN” value [2] was 0.2 mg/dL and the “TOTAL PROTEIN” value [2] was 6.1 G/DL. For the same compound, the “URIC ACID” value [2] was 1.6 mg/dL, the “ABSOLUTE BASOPHIL” value [3] was 0 CELLS/uL and the “ABSOLUTE EOSINOPHIL” value [3] was 47 CELLS/uL. The “ABSOLUTE LYMPHOCYTE” value [3] was 15977.33 CELLS/uL, the “ABSOLUTE MONOCYTE” value [3] was 106.67 CELLS/uL and the “ABSOLUTE SEGMENTED NEUTROPHIL” value [3] was 835.67 CELLS/uL. For the same compound, the BASOPHIL [3] was 0%, the EOSINOPHIL [3] was 0.33% and the “ERYTHROCYTE COUNT” value [3] was 5.96 x10E6/uL. For the same compound, the HEMATOCRIT [3] was 39.13%, the HEMOGLOBIN [3] was 15.37 G/DL and the “LEUKOCYTE COUNT” value [3] was 16.97 x10E3/uL. For the same compound, the LYMPHOCYTE [3] was 94%, the “MEAN CORPUSCULAR HEMOGLOBIN” value [3] was 25.73 pg and the “MEAN CORPUSCULAR HEMOGLOBIN CONCENTRATION” value [3] was 39.27 G/DL. For the same compound, the “MEAN CORPUSCULAR VOLUME” value [3] was 65.6 fL, the MONOCYTE [3] was 0.67% and the NEUTROPHIL [3] was 5%. For the same compound, the “NUCLEATED RED BLOOD CELLS” value [3] was 1 /100WBC, the “PLATELET COUNT” value [3] was 1523.33 x10E3/uL and the “ALANINE AMINOTRANSFERASE” value [3] was 43 u/L. For the same compound, the ALBUMIN [3] was 4.63 G/DL, the “ALKALINE PHOSPHATASE” value [3] was 324.67 u/L and the “ASPARTATE AMINOTRANSFERASE” value [3] was 88 u/L. For the same compound, the “BLOOD UREA NITROGEN” value [3] was 20.33 mg/dL, the “CARBON DIOXIDE” value [3] was 28.33 mmol/L and the CHLORIDE [3] was 105.67 MEQ/L. The CHOLESTEROL [3] was 86 mg/dL, the “CREATINE PHOSPHOKINASE” value [3] was 443.33 u/L and the CREATININE [3] was 0.21 mg/dL. The GLUCOSE [3] was 160.67 mg/dL, the “LACTATE DEHYDROGENASE” value [3] was 447.33 u/L and the LIPASE [3] was 10 u/L. The PHOSPHORUS [3] was 14.07 mg/dL, the POTASSIUM [3] was 7.15 MEQ/L and the SODIUM [3] was 150.93 MEQ/L. For the same compound, the “TOTAL BILIRUBIN” value [3] was 0.1 mg/dL, the “TOTAL PROTEIN” value [3] was 6.8 G/DL and the “URIC ACID” value [3] was 2.5 mg/dL. The “ABSOLUTE BASOPHIL” value [4] was 0 CELLS/uL, the “ABSOLUTE EOSINOPHIL” value [4] was 0 CELLS/uL and the “ABSOLUTE LYMPHOCYTE” value [4] was 17167.33 CELLS/uL. For the same compound, the “ABSOLUTE MONOCYTE” value [4] was 176.67 CELLS/uL, the “ABSOLUTE SEGMENTED NEUTROPHIL” value [4] was 1189.33 CELLS/uL and the BASOPHIL [4] was 0%. The EOSINOPHIL [4] was 0%, the “ERYTHROCYTE COUNT” value [4] was 5.82 x10E6/uL and the HEMATOCRIT [4] was 35.33%. The HEMOGLOBIN [4] was 14.37 G/DL, the “LEUKOCYTE COUNT” value [4] was 18.53 x10E3/uL and the LYMPHOCYTE [4] was 92.33%. For the same compound, the “MEAN CORPUSCULAR HEMOGLOBIN” value [4] was 24.67 pg, the “MEAN CORPUSCULAR HEMOGLOBIN CONCENTRATION” value [4] was 40.67 G/DL and the “MEAN CORPUSCULAR VOLUME” value [4] was 60.77 fL. For the same compound, the MONOCYTE [4] was 1%, the NEUTROPHIL [4] was 6.67% and the “NUCLEATED RED BLOOD CELLS” value [4] was 0 /100WBC. The “PLATELET COUNT” value [4] was 1249.33 x10E3/uL, the “ALANINE AMINOTRANSFERASE” value [4] was 68 u/L and the ALBUMIN [4] was 4.23 G/DL. For the same compound, the “ALKALINE PHOSPHATASE” value [4] was 385.33 u/L, the “ASPARTATE AMINOTRANSFERASE” value [4] was 101.67 u/L and the “BLOOD UREA NITROGEN” value [4] was 21.67 mg/dL. For the same compound, the “CARBON DIOXIDE” value [4] was 33.67 mmol/L, the CHLORIDE [4] was 102.33 MEQ/L and the CHOLESTEROL [4] was 76.67 mg/dL. For the same compound, the “CREATINE PHOSPHOKINASE” value [4] was 356 u/L, the CREATININE [4] was 0.23 mg/dL and the GLUCOSE [4] was 153.67 mg/dL. For the same compound, the “LACTATE DEHYDROGENASE” value [4] was 345 u/L, the LIPASE [4] was 10.33 u/L and the PHOSPHORUS [4] was 12.8 mg/dL. The POTASSIUM [4] was 7.54 MEQ/L, the SODIUM [4] was 145.93 MEQ/L and the “TOTAL BILIRUBIN” value [4] was 0.1 mg/dL. For the same compound, the “TOTAL PROTEIN” value [4] was 5.93 G/DL and the “URIC ACID” value [4] was 1.6 mg/dL.
